Reference: ChEMBL document CHEMBL1201862, “PubChem BioAssay data set” (2004)
“And” between values parts separate entries of the source, which are not always exact repeats. Equal values may be shown once.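 Interpolation was linear, between the two tested concentrations surrounding the appropriate level; five concentrations were tested over 48 hours in 96-well plates. GI50 = concentration required for 50% inhibition of growth.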 The source made the active and inactive calls. Rule as the data show it: active = GI50 up to about 1.1 µM and inactive = higher.

Assays:
Experiment in all cases: inhibition of tumour cell growth, NCI panel, 48 h
HT-29 = system: HT-29
HCT-116 = system: HCT-116
Malme-3M = system: Malme-3M
NCI-H23 = system: NCI-H23
TK-10 = system: TK-10
SK-MEL-28 = system: SK-MEL-28
SK-MEL-5 = system: SK-MEL-5
SNB-19 = system: SNB-19
SF-268 = system: SF-268
COLO 205 = system: COLO 205
A498 = system: A498
OVCAR-3 = system: OVCAR-3
CAKI-1 = system: CAKI-1
M14 = system: M14
HOP-62 = system: HOP-62
K562 = system: K562
U-251 = system: U-251
OVCAR-4 = system: OVCAR-4
NCI-H522 = system: NCI-H522

| SMILES | GI50 (HT-29) | GI50 (HCT-116) | GI50 (Malme-3M) | GI50 (NCI-H23) | GI50 (TK-10) | GI50 (SK-MEL-28) | GI50 (SK-MEL-5) | GI50 (SNB-19) | GI50 (SF-268) | GI50 (COLO 205) | GI50 (A498) | GI50 (OVCAR-3) | GI50 (CAKI-1) | GI50 (M14) | GI50 (HOP-62) | GI50 (K562) | GI50 (U-251) | GI50 (OVCAR-4) | GI50 (NCI-H522) |
| --- | --- | --- | --- | --- | --- | --- | --- | --- | --- | --- | --- | --- | --- | --- | --- | --- | --- | --- | --- |
| CCN(CC)CC(C)(C)C(=O)/C=C/c1cccc(/C=C/C(=O)C(C)(C)CN(CC)CC)c1 | 0.366 µM (active) | 0.361 µM (active) | 1.59 µM (inactive) | 1.3 µM (inactive) | 1.14 µM (inactive) | 1.42 µM (inactive) | 1.59 µM (inactive) | 1.79 µM (inactive) | 0.429 µM (active) | 0.247 µM (active) | 1.36 µM (inactive) | 1.11 µM (active) | 0.286 µM (active) | 1.48 µM (inactive) | 2.31 µM (inactive) | 0.431 µM (active) | 0.219 µM (active) | 0.442 µM (active) |  |
| Cc1cc2c(c(C#N)c1C)NC(=O)CCC2=O | > 100 µM (inactive) | > 100 µM (inactive) |  | > 100 µM (inactive) |  | > 100 µM (inactive) |  |  |  | > 100 µM (inactive) | > 100 µM (inactive) | > 100 µM (inactive) | > 100 µM (inactive) | > 100 µM (inactive) | > 100 µM (inactive) | > 100 µM (inactive) | > 100 µM (inactive) | > 100 µM (inactive) |  |
| CC(=O)OCC12CC(CC1OC(C)=O)c1ccccc12 (configuration not stated) | > 100 µM (inactive) | > 100 µM (inactive) | > 100 µM (inactive) | > 100 µM (inactive) | > 100 µM (inactive) | > 100 µM (inactive) | > 100 µM (inactive) | > 100 µM (inactive) | > 100 µM (inactive) | > 100 µM (inactive) | > 100 µM (inactive) | > 100 µM (inactive) | > 100 µM (inactive) | > 100 µM (inactive) | > 100 µM (inactive) | > 100 µM (inactive) | > 100 µM (inactive) | > 100 µM (inactive) |  |
| CCN1CCCC(Nc2cc(C)nc(NC(=N)Nc3ccc(Cl)c(Cl)c3)n2)C1 (configuration not stated) | 3.06 µM (inactive) | 1.26 µM (inactive) | 2.39 µM (inactive) | 1.77 µM (inactive) | 1.69 µM (inactive) | 1.77 µM (inactive) | 2.08 µM (inactive) | 2.14 µM (inactive) | 1.96 µM (inactive) | 1.27 µM (inactive) |  | 1.67 µM (inactive) | 1.56 µM (inactive) | 0.254 µM (active) | 1.43 µM (inactive) | 0.217 µM (active) | 1.3 µM (inactive) | 1.85 µM (inactive) | 1.24 µM (inactive) |
| C1=Cc2nc1c(-c1ccncc1)c1ccc([n-]1)c(-c1ccncc1)c1nc(c(-c3ccncc3)c3ccc([n-]3)c2-c2ccncc2)C=C1.[Zn+2] | > 100 µM (inactive) | > 100 µM (inactive) | > 100 µM (inactive) | > 100 µM (inactive) | > 100 µM (inactive) | > 100 µM (inactive) | > 100 µM (inactive) | > 100 µM (inactive) | > 100 µM (inactive) | > 100 µM (inactive) |  | > 100 µM (inactive) | > 100 µM (inactive) | > 100 µM (inactive) | > 100 µM (inactive) | > 100 µM (inactive) | > 100 µM (inactive) | > 100 µM (inactive) | > 100 µM (inactive) |
| C[C@@H]1CC[C@@]2(C)OC(c3ccccc3)[C@H](CO)N2C1=O (some centres not stated) | > 100 µM (inactive) | > 100 µM (inactive) | > 100 µM (inactive) | > 100 µM (inactive) | > 100 µM (inactive) | > 100 µM (inactive) | > 100 µM (inactive) | > 100 µM (inactive) | > 100 µM (inactive) | > 100 µM (inactive) | > 100 µM (inactive) | > 100 µM (inactive) | > 100 µM (inactive) |  | > 100 µM (inactive) | > 100 µM (inactive) | > 100 µM (inactive) | > 100 µM (inactive) |  |
| O=c1ncccn1[C@@H]1O[C@H](CO)[C@@H](O)[C@@H]1F | > 100 µM (inactive) and > 61.9 µM (inactive) |  | > 100 µM (inactive) and > 67.1 µM (inactive) | > 100 µM (inactive) | > 100 µM (inactive) and > 69.5 µM (inactive) | > 64 µM (inactive) | > 100 µM (inactive) | > 100 µM (inactive) | > 100 µM (inactive) | > 100 µM (inactive) | > 100 µM (inactive) | > 100 µM (inactive) | > 100 µM (inactive) | > 100 µM (inactive) | > 68.5 µM (inactive) |  | > 100 µM (inactive) | > 100 µM (inactive) | > 100 µM (inactive) |
| CCOC(=O)C(Cc1cn(S(=O)(=O)c2ccccc2)c2ccccc12)(NC(C)=O)C(=O)OCC | 58.5 µM (inactive) | 24.7 µM (inactive) | 37.9 µM (inactive) | 26.3 µM (inactive) | 65.5 µM (inactive) | 42.6 µM (inactive) | 15.8 µM (inactive) | 34.8 µM (inactive) | 40 µM (inactive) | 25 µM (inactive) |  | 34 µM (inactive) | 49.1 µM (inactive) | 32.1 µM (inactive) | 27.2 µM (inactive) | 29 µM (inactive) | 40.1 µM (inactive) | 33.3 µM (inactive) | 15.3 µM (inactive) |
